Measured values published in ChEMBL document CHEMBL4368902 (J Med Chem, 2019).
Activity calls are given as the source filed them. The calls are words filed in the database; no cut-off is given here. Positions of bridges follow the written chain, without caps; N, C: chain ends. Non-standard residues stand in square brackets, D forms with d. Residues, ends and D or L forms follow the SMILES beside them. Nle = CCCC[C@H](N)C(=O)O

Assays:
[1] = tested on: Mus musculus; assay: Anorexigenic activity in C57BL/6J mouse assessed as reduction in ghrelin-induced food intake at 0.6 nmol/g body weight, sc measured after 2 hrs post dose; type: functional, organism-based
[2] = tested on: Mus musculus; assay: Effect on food intake in C57BL/6J mouse at 0.6 nmol/g body weight, sc measured after 2 hrs post dose; type: ADME, organism-based; settings: in vivo
[3] = target: T1, Growth hormone secretagogue receptor type 1 (Homo sapiens, UniProt Q92847); assay: Displacement of […] from SNAP-tagged human GHSR expressed in HEK293T cells after 3 hrs by HTRF assay; type: cell-based
T1 sequence (Q92847 whole entry): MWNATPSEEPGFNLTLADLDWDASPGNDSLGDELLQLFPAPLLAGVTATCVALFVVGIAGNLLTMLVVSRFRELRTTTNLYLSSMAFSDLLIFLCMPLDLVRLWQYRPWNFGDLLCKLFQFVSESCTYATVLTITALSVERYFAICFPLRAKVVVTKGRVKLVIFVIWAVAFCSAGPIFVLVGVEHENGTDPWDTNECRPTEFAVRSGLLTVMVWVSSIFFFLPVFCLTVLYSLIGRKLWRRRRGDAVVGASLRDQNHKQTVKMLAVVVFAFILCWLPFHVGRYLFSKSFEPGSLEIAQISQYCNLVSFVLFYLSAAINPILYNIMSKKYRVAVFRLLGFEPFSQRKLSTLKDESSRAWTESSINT

[4] = target: T1, Growth hormone secretagogue receptor type 1; assay: Competitive antagonist activity at human SNAP-tagged GHSR expressed in HEK293T cells assessed as reduction in ghrelin-induced calcium production at 1 uM after 15 mins by Fluo 4-AM dye-based fluorescence assay; type: functional, cell-based; settings: read-out: pA2 (converted)
[5] = target: T1, Growth hormone secretagogue receptor type 1; assay: Competitive antagonist activity at SNAP-tagged human GHSR expressed in HEK293T cells assessed as reduction in ghrelin-induced inositol phosphate production at 1 uM after 30 mins by HTRF assay; type: functional, cell-based; settings: read-out: pA2 (converted)
[6] = target: T1, Growth hormone secretagogue receptor type 1; assay: Inverse agonist activity at SNAP-tagged human GHSR expressed in HEK293T cells assessed as reduction in inositol phosphate production after 30 mins by HTRF assay; type: functional, cell-based
[7] = target: Growth hormone secretagogue receptor type 1 (Rattus norvegicus) (UniProt O08725); assay: Inverse agonist activity at GHSR in Wistar rat pancreatic islets assessed as inhibition of ghrelin-induced insulinostatic action after 1 hr in presence of glucose
Sequence of Growth hormone secretagogue receptor type 1 (Rattus norvegicus) (O08725 whole entry, looked up): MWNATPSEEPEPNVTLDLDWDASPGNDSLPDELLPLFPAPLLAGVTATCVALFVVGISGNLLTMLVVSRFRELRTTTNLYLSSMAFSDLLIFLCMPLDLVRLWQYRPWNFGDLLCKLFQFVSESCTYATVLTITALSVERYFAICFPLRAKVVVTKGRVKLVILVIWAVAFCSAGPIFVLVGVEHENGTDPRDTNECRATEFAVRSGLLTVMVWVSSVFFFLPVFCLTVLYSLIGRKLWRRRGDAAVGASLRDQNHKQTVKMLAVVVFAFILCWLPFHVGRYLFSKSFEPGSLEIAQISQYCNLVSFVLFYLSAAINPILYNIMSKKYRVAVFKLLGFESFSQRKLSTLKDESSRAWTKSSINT

Row | Compound | Ki [3] | Kb [4] | Kb [5] | EC50 [6] | Activity [7] | Activity [1] | Activity [2]
1 | CC(C)C[C@H](NC(=O)[C@H](CO)NC(=O)[C@@H]1CSSC[C@@H]2NC(=O)[C@H](CCC(=O)O)NC(=O)[C@H](CO)NC(=O)[C@@H](CC(=O)O)NC(=O)[C@@H](CC(=O)O)NC(=O)[C@@H](CCCNC(=N)N)NC(=O)[C@H](NC(=O)[C@@H](CO)NC(=O)[C@@H](C)N)CSSC[C@H](NC(=O)[C@H](CC(C)C)NC(=O)[C@H](CCCNC(=N)N)NC(=O)[C@H]([C@@H](C)O)NC(=O)[C@H]([C@@H](C)O)NC2=O)C(=O)N[C@@H](CCCNC(=N)N)C(=O)N[C@@H](CCCCN)C(=O)N[C@@H](CCCNC(=N)N)C(=O)N[C@@H](CCCNC(=N)N)C(=O)N1)C(=O)N[C@@H](CO)C(=O)N[C@H](C(=O)N[C@@H](C)C(=O)N[C@@H](CCC(N)=O)C(=O)N[C@@H](CCC(=O)O)C(=O)O)C(C)C |  |  |  |  |  | inactive | 
2 | CCCC[C@H](N)C(=O)N[C@H](C(=O)N1CCC[C@H]1C(=O)N[C@@H](Cc1ccccc1)C(=O)N[C@@H](Cc1c[nH]c2ccccc12)C(=O)N[C@@H](CCCNC(=N)N)C(=O)NCC(=O)N[C@H](C(=O)N[C@@H](CO)C(=O)N[C@@H](CC(C)C)C(=O)N[C@@H](CCCNC(=N)N)C(=O)N1CCC[C@H]1C(=O)N[C@H](C(=O)NCC(=O)N[C@H](C)C(=O)N[C@H](CO)C(=O)N[C@@H]1CSSC[C@@H]2NC(=O)[C@H](CC(C)C)NC(=O)[C@H](CCCNC(=N)N)NC(=O)[C@H]([C@@H](C)O)NC(=O)[C@H]([C@@H](C)O)NC(=O)[C@H](CSSC[C@@H](C(=O)N[C@@H](CO)C(=O)N[C@@H](CC(C)C)C(=O)N[C@@H](CO)C(=O)N[C@H](C(=O)N[C@@H](C)C(=O)N[C@@H](CCC(N)=O)C(=O)N[C@@H](CCC(=O)O)C(=O)O)C(C)C)NC(=O)[C@H](CCCNC(=N)N)NC(=O)[C@H](CCCNC(=N)N)NC(=O)[C@H](CCCCN)NC(=O)[C@H](CCCNC(=N)N)NC2=O)NC(=O)[C@H](CCC(=O)O)NC(=O)[C@H](CO)NC(=O)[C@@H](CC(=O)O)NC(=O)[C@@H](CC(=O)O)NC(=O)[C@@H](CCCNC(=N)N)NC1=O)[C@@H](C)CC)C(C)C)[C@@H](C)O |  |  |  |  |  | Active | 
3 | CC[C@H](C)[C@@H]1NC(=O)[C@@H]2CSSC[C@@H](C(=O)N[C@@H](CO)C(=O)N[C@@H](CC(C)C)C(=O)N[C@@H](CO)C(=O)N[C@H](C(=O)N[C@@H](C)C(=O)N[C@@H](CCC(N)=O)C(=O)N[C@@H](CCC(=O)O)C(=O)O)C(C)C)NC(=O)[C@H](CCCNC(=N)N)NC(=O)[C@H](CCCNC(=N)N)NC(=O)[C@H](CCCCN)NC(=O)[C@H](CCCNC(=N)N)NC(=O)[C@H](CSSC[C@H](NC(=O)[C@H](CO)NC(=O)[C@H](C)N)C(=O)N[C@@H](CCCNC(=N)N)C(=O)N[C@@H](CC(=O)O)C(=O)N[C@@H](CC(=O)O)C(=O)N[C@@H](CO)C(=O)N[C@@H](CCC(=O)O)C(=O)N2)NC(=O)[C@H](CC(C)C)NC(=O)[C@H](CCCNC(=N)N)NC(=O)[C@H]([C@@H](C)O)NC1=O (H-ASCRDDSECITRLCRKRRCSLSVAQE-OH; disulfide 3-14, 9-19) |  |  |  |  |  |  | Non-Toxic
4 | CCCC[C@H](N)C(=O)N[C@H](C(=O)N1CCC[C@H]1C(=O)N[C@@H](Cc1ccccc1)C(=O)N[C@@H](Cc1c[nH]c2ccccc12)C(=O)N[C@@H](CCCNC(=N)N)C(N)=O)[C@@H](C)O (H-[Nle]TPFWR-NH2) | 55 nM |  |  | 6630 nM |  |  | 
5 | CCCC[C@H](N)C(=O)N[C@H](C(=O)N1CCC[C@H]1C(=O)N[C@@H](Cc1ccccc1)C(=O)N[C@@H](Cc1c[nH]c2ccccc12)C(=O)N[C@@H](CCCNC(=N)N)C(=O)NCC(=O)N[C@H](C(N)=O)C(C)C)[C@@H](C)O (H-[Nle]TPFWRGV-NH2) | 6.45 nM |  |  | 368 nM |  |  | 

More lines, main results first:

Row | Ki [3] | Kb [4] | Kb [5] | EC50 [6] | Activity [7] | Compound | Activity [1] | Activity [2]
6 | 1.26 nM | 10.2 nM | 1.48 nM | 22.8 nM |  | CC[C@H](C)[C@@H]1NC(=O)[C@@H]2CSSC[C@@H](C(=O)N[C@@H](CO)C(=O)N[C@@H](CC(C)C)C(=O)N[C@@H](CO)C(=O)N[C@H](C(=O)N[C@@H](C)C(=O)N[C@@H](CCC(N)=O)C(=O)N[C@@H](CCC(=O)O)C(=O)O)C(C)C)NC(=O)[C@H](CCCNC(=N)N)NC(=O)[C@H](CCCNC(=N)N)NC(=O)[C@H](CCCCN)NC(=O)[C@H](CCCNC(=N)N)NC(=O)[C@H](CSSC[C@H](NC(=O)[C@H](CO)NC(=O)[C@H](C)NC(=O)CNC(=O)[C@@H](NC(=O)[C@@H]3CCCN3C(=O)[C@H](CCCNC(=N)N)NC(=O)[C@H](CC(C)C)NC(=O)[C@H](CO)NC(=O)[C@@H](NC(=O)CNC(=O)[C@H](CCCNC(=N)N)NC(=O)[C@H](Cc3c[nH]c4ccccc34)NC(=O)[C@H](Cc3ccccc3)NC(=O)[C@@H]3CCCN3C(=O)[C@@H](NC(=O)[C@@H](N)CCSC)[C@@H](C)O)C(C)C)[C@@H](C)CC)C(=O)N[C@@H](CCCNC(=N)N)C(=O)N[C@@H](CC(=O)O)C(=O)N[C@@H](CC(=O)O)C(=O)N[C@@H](CO)C(=O)N[C@@H](CCC(=O)O)C(=O)N2)NC(=O)[C@H](CC(C)C)NC(=O)[C@H](CCCNC(=N)N)NC(=O)[C@H]([C@@H](C)O)NC1=O (H-MTPFWRGVSLRPIGASCRDDSECITRLCRKRRCSLSVAQE-OH; disulfide 17-28, 23-33) |  | Non-Toxic
7 | 3.4 nM |  |  | 134 nM |  | CCCC[C@H](N)C(=O)N[C@H](C(=O)N1CCC[C@H]1C(=O)N[C@@H](Cc1ccccc1)C(=O)N[C@@H](Cc1c[nH]c2ccccc12)C(=O)N[C@@H](CCCNC(=N)N)C(=O)NCC(=O)N[C@H](C(=O)N[C@@H](CO)C(=O)N[C@@H](CC(C)C)C(N)=O)C(C)C)[C@@H](C)O (H-[Nle]TPFWRGVSL-NH2) |  | 
8 | 2.7 nM |  |  | 46 nM | Active | CCCC[C@H](N)C(=O)N[C@H](C(=O)N1CCC[C@H]1C(=O)N[C@@H](Cc1ccccc1)C(=O)N[C@@H](Cc1c[nH]c2ccccc12)C(=O)N[C@@H](CCCNC(=N)N)C(=O)NCC(=O)N[C@H](C(=O)N[C@@H](CO)C(=O)N[C@@H](CC(C)C)C(=O)N[C@@H](CCCNC(=N)N)C(=O)N1CCC[C@H]1C(N)=O)C(C)C)[C@@H](C)O (H-[Nle]TPFWRGVSLRP-NH2) | Active | Non-Toxic
9 | 3.05 nM |  |  | 48 nM |  | CCCC[C@H](N)C(=O)N[C@H](C(=O)N1CCC[C@H]1C(=O)N[C@@H](Cc1ccccc1)C(=O)N[C@@H](Cc1c[nH]c2ccccc12)C(=O)N[C@@H](CCCNC(=N)N)C(=O)NCC(=O)N[C@H](C(=O)N[C@@H](CO)C(=O)N[C@@H](CC(C)C)C(=O)N[C@@H](CCCNC(=N)N)C(=O)N1CCC[C@H]1C(=O)N[C@H](C(=O)NCC(N)=O)[C@@H](C)CC)C(C)C)[C@@H](C)O (H-[Nle]TPFWRGVSLRPIG-NH2) |  | 
10 | 3.66 nM | 89.1 nM | 34.7 nM | 76.4 nM |  | CCCC[C@H](N)C(=O)N[C@H](C(=O)N1CCC[C@H]1C(=O)N[C@@H](Cc1ccccc1)C(=O)N[C@@H](Cc1c[nH]c2ccccc12)C(=O)N[C@@H](CCCNC(=N)N)C(=O)NCC(=O)N[C@H](C(=O)N[C@@H](CO)C(=O)N[C@@H](CC(C)C)C(=O)N[C@@H](CCCNC(=N)N)C(=O)N1CCC[C@H]1C(=O)N[C@H](C(=O)NCC(=O)O)[C@@H](C)CC)C(C)C)[C@@H](C)O (H-[Nle]TPFWRGVSLRPIG-OH) |  | 
